Laboratory results taken from patent US11814375B2, “Heterocyclic compounds” (Hoffmann-La Roche Inc., priority 2019, dated 2023).

Biological target: T1, MAGL (Homo sapiens, UniProt Q99685)
T1 sequence (Q99685 1-303): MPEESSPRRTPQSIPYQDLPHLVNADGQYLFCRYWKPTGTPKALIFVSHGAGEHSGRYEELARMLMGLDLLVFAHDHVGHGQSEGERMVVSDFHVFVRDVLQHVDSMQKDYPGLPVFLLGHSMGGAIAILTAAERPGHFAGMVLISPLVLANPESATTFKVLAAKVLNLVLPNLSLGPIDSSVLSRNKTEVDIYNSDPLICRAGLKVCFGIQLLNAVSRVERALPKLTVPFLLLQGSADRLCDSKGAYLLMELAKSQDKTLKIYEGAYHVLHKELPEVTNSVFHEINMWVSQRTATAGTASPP
Assay: 2-AG assay: MAGL inhibitory activity by hydrolysis of 2-arachidonoylglycerol to arachidonic acid, followed by mass spectrometry
Format: biochemical
Conditions: 8 μM 2-arachidonoylglycerol, 15 min preincubation and 30 min reaction at RT, arachidonic acid/d8-arachidonic acid ratio by MS
Experimental: Compounds of formula (I) were profiled for MAGL inhibitory activity by determining the enzymatic activity by following the hydrolysis of the natural substrate 2-arachidonoylglycerol (2-AG) resulting in arachidonic acid, which can be followed by mass spectrometry. This assay is hereinafter abbreviated “2-AG assay”.
The 2-AG assay was carried out in 384 well assay plates (PP, Greiner Cat #784201) in a total volume of 20 μL. Compound dilutions were made in 100% DMSO (VWR Chemicals 23500.297) in a polypropylene plate in 3-fold dilution steps to give a final concentration range in the assay from 12.5 μM to […]. 0.25 μL compound dilutions (100% DMSO) were added to 9 μL MAGL in assay buffer (50 mM TRIS (GIBCO, 15567-027), 1 mM EDTA (Fluka, 03690-100 mL), 0.01% (v/v) Tween. After shaking, the plate was incubated for 15 min at RT. To start the reaction, 10 μL 2-arachidonoylglycerol in assay buffer was added. The final concentrations in the assay was […] and 8 μM 2-arachidonoylglyerol. After shaking and 30 min incubation at RT, the reaction was quenched by the addition of 40 μL of ACN containing 4 μM of d8-arachidonic acid. The amount of arachidonic acid was traced by an online SPE system (Agilent Rapidfire) coupled to a triple quadrupole mass spectrometer (Agilent 6460). A C18 SPE cartridge (G9205A) was used in an ACN/water liquid setup. The mass spectrometer was operated in negative electrospray mode following the mass transitions 303.1→259.1 for arachidonic acid and 311.1→267.0 for d8-arachidonic acid. The activity of the compounds was calculated based on the ratio of intensities [arachidonic acid/d8-arachidonic acid].

IC50	Compound
0.9 nM	CC(C)(C)Cn1nncc1-c1ccc(C2CN(C(=O)N3CC[C@@H]4OCC(=O)N[C@@H]4C3)C2)cc1 [Example 36, (4aR, 8aS)-6-[3-[4-[3-(2,2-Dimethylpropyl)triazol-4-yl]phenyl]azetidine-1-carbonyl]-4,4a,5,7,8,8a-hexahydropyrido[4,3-b][1,4]oxazin-3-one]
2.4 nM	CC(C)(C)Cc1nc(-c2ccc(C3CN(C(=O)N4CC[C@@H]5OCC(=O)N[C@@H]5C4)C3)cc2)no1 [Example 37, (4aR,8aS)-6-[3-[4-[5-(2,2-Dimethylpropyl)-1,2,4-oxadiazol-3-yl]phenyl]azetidine-1-carbonyl]-4,4a,5,7,8,8a-hexahydropyrido[4,3-b][1,4]oxazin-3-one]
8.5 nM	CC(C)(C)Cc1nnc(-c2ccc(C3CN(C(=O)N4CC[C@@H]5OCC(=O)N[C@@H]5C4)C3)cc2)o1 [Example 38, (4aR,8aS)-6-[3-[4-[5-(2,2-Dimethylpropyl)-1,3,4-oxadiazol-2-yl]phenyl]azetidine-1-carbonyl]-4,4a,5,7,8,8a-hexahydropyrido[4,3-b][1,4]oxazin-3-one]
6.7 nM	O=C1CO[C@H]2CCN(C(=O)N3CC(c4ccc(-c5ccnn5CCF)cc4)C3)C[C@H]2N1 [Example 39, (4aR,8aS)-6-[3-[4-[2-(2-Fluoroethyl)pyrazol-3-yl]phenyl]azetidine-1-carbonyl]-4,4a,5,7,8,8a-hexahydropyrido[4,3-b][1,4]oxazin-3-one]
73.1 nM	O=C1CO[C@H]2CCN(C(=O)N3CC(c4ccc(-c5cnn(CCF)c5)cc4)C3)C[C@H]2N1 [Example 40, (4aR,8aS)-6-[3-[4-[1-(2-Fluoroethyl)pyrazol-4-yl]phenyl]azetidine-1-carbonyl]-4,4a,5,7,8,8a-hexahydropyrido[4,3-b][1,4]oxazin-3-one]
24.6 nM	Cc1csc(-c2ccc(C3CN(C(=O)N4CC[C@@H]5OCC(=O)N[C@@H]5C4)C3)cc2)n1 [Example 41, (4aR,8aS)-6-[3-[4-(4-Methyl-1,3-thiazol-2-yl)phenyl]azetidine-1-carbonyl]-4,4a,5,7,8,8a-hexahydropyrido[4,3-b][1,4]oxazin-3-one]
153 nM	Cn1ccc(-c2ccc(C3CN(C(=O)N4CC[C@@H]5OCC(=O)N[C@@H]5C4)C3)cc2)n1 [Example 42, (4aR,8aS)-6-[3-[4-(1-Methylpyrazol-3-yl)phenyl]azetidine-1-carbonyl]-4,4a,5,7,8,8a-hexahydropyrido[4,3-b][1,4]oxazin-3-one]
19.3 nM	O=C1CO[C@H]2CCN(C(=O)N3CC(c4ccc(-c5ccc(F)nc5)cc4)C3)C[C@H]2N1 [Example 43, (4aR,8aS)-6-[3-[4-(6-Fluoropyridin-3-yl)phenyl]azetidine-1-carbonyl]-4,4a,5,7,8,8a-hexahydropyrido[4,3-b][1,4]oxazin-3-one]
67.7 nM	O=C1CO[C@H]2CCN(C(=O)N3CC(c4ccc(-c5ccnc(F)c5)cc4)C3)C[C@H]2N1 [Example 44, (4aR,8aS)-6-[3-[4-(2-Fluoropyridin-4-yl)phenyl]azetidine-1-carbonyl]-4,4a,5,7,8,8a-hexahydropyrido[4,3-b][1,4]oxazin-3-one]
134 nM	Cn1cc(-c2ccc(C3CN(C(=O)N4CC[C@@H]5OCC(=O)N[C@@H]5C4)C3)cc2)cn1 [Example 45, (4aR,8aS)-6-[3-[4-(1-Methylpyrazol-4-yl)phenyl]azetidine-1-carbonyl]-4,4a,5,7,8,8a-hexahydropyrido[4,3-b][1,4]oxazin-3-one]
17.5 nM	Cn1nccc1-c1ccc(C2CN(C(=O)N3CC[C@@H]4OCC(=O)N[C@@H]4C3)C2)cc1 [Example 46, (4aR,8aS)-6-[3-[4-(2-Methylpyrazol-3-yl)phenyl]azetidine-1-carbonyl]-4,4a,5,7,8,8a-hexahydropyrido[4,3-b][1,4]oxazin-3-one]
1.4 nM	O=C1CO[C@H]2CCN(C(=O)N3CC(c4ccc(Oc5ccc(F)cc5)cn4)C3)C[C@H]2N1 [Example 47, (4aR,8aS)-6-[3-[5-(4-Fluorophenoxy)-2-pyridyl]azetidine-1-carbonyl]-4,4a,5,7,8,8a-hexahydropyrido[4,3-b][1,4]oxazin-3-one]
31.5 nM	O=C1CO[C@H]2CCN(C(=O)N3CC(c4ccc(Oc5ccc(F)cc5)nc4)C3)C[C@H]2N1 [Example 48, (4aR,8aS)-6-(3-(6-(4-Fluorophenoxy)pyridin-3-yl)azetidine-1-carbonyl)hexahydro-2H-pyrido[4,3-b][1,4]oxazin-3(4H)-one]
2.4 nM	O=C1CO[C@H]2CCN(C(=O)N3CC(c4ccc(Oc5ccc(OC(F)(F)F)cc5)nc4)C3)C[C@H]2N1 [Example 49, (4aR,8aS)-6-(3-(6-(4-(Trifluoromethoxy)phenoxy)pyridin-3-yl)azetidine-1-carbonyl)hexahydro-2H-pyrido[4,3-b][1,4]oxazin-3(4H)-one]
4.3 nM	O=C1CO[C@H]2CCN(C(=O)N3CC(c4ccc(Oc5ccc(Cl)cc5)nc4)C3)C[C@H]2N1 [Example 50, (4aR,8aS)-6-(3-(6-(4-Chlorophenoxy)pyridin-3-yl)azetidine-1-carbonyl)hexahydro-2H-pyrido[4,3-b][1,4]oxazin-3(4H)-one]
124 nM	Cc1cc(Oc2ccc(C3CN(C(=O)N4CC[C@@H]5OCC(=O)N[C@@H]5C4)C3)cc2)c(C)nn1 [Example 51, (4aR,8aS)-6-[3-[4-(3,6-Dimethylpyridazin-4-yl)oxyphenyl]azetidine-1-carbonyl]-4,4a,5,7,8,8a-hexahydropyrido[4,3-b][1,4]oxazin-3-one]
1.3 nM	O=C1CO[C@H]2CCN(C(=O)N3CC(c4ccc(Oc5ccccc5Cl)nc4)C3)C[C@H]2N1 [Example 52, (4aR,8aS)-6-(3-(6-(2-Chlorophenoxy)pyridin-3-yl)azetidine-1-carbonyl)hexahydro-2H-pyrido[4,3-b][1,4]oxazin-3(4H)-one]
12.9 nM	O=C1CO[C@H]2CCN(C(=O)N3CC(c4ccc(Oc5cccc(Cl)c5)nc4)C3)C[C@H]2N1 [Example 53, (4aR,8aS)-6-(3-(6-(3-Chlorophenoxy)pyridin-3-yl)azetidine-1-carbonyl)hexahydro-2H-pyrido[4,3-b][1,4]oxazin-3(4H)-one]
10.4 nM	O=C1CO[C@H]2CCN(C(=O)N3CCC(c4ccc(Oc5ccc(F)cc5)cc4)CC3)C[C@H]2N1 [Example 54, (4aR,8aS)-6-[4-[4-(4-Fluorophenoxy)phenyl]piperidine-1-carbonyl]-4,4a,5,7,8,8a-hexahydropyrido[4,3-b][1,4]oxazin-3-one]
10.3 nM	O=C1CO[C@H]2CCN(C(=O)N3CC(O)(c4ccc(Oc5ccccc5)cc4)C3)C[C@H]2N1 [Example 55, (4aR,8aS)-6-[3-Hydroxy-3-(4-phenoxyphenyl)azetidine-1-carbonyl]-4,4a,5,7,8,8a-hexahydropyrido[4,3-b][1,4]oxazin-3-one]
15.5 nM	O=C1CO[C@H]2CCN(C(=O)N3CC(O)(c4ccc(Oc5ccccc5)cn4)C3)C[C@H]2N1 [Example 56, (4aR,8aS)-6-[3-Hydroxy-3-(5-phenoxy-2-pyridyl)azetidine-1-carbonyl]-4,4a,5,7,8,8a-hexahydropyrido[4,3-b][1,4]oxazin-3-one]
17.8 nM	O=C1CO[C@H]2CCN(C(=O)N3CCC(c4ccc(Oc5ccccc5)cc4)CC3)C[C@H]2N1 [Example 57, (4aR,8aS)-6-[4-(4-Phenoxyphenyl)piperidine-1-carbonyl]-4,4a,5,7,8,8a-hexahydropyrido[4,3-b][1,4]oxazin-3-one]
1100 nM	O=C1CO[C@H]2CCN(C(=O)N3CCN(c4ccc(Oc5ccccc5)cc4)CC3)C[C@H]2N1 [Example 58, (4aR,8aS)-6-[4-(4-Phenoxyphenyl)piperazine-1-carbonyl]-4,4a,5,7,8,8a-hexahydropyrido[4,3-b][1,4]oxazin-3-one]
